Results: patent US11613517B2, “Amide prodrugs of small molecule nuclear receptor modulators” (OREGON HEALTH & SCIENCE UNIVERSITY, priority 2018, dated 2023)

Target: T1, FAAH (Mus musculus, UniProt O08914)
T1 construct: from tissue; host or cells: live wild type male C57Bl/6 mice (in vivo; brain and serum analysed)
T1 sequence (O08914 1-579): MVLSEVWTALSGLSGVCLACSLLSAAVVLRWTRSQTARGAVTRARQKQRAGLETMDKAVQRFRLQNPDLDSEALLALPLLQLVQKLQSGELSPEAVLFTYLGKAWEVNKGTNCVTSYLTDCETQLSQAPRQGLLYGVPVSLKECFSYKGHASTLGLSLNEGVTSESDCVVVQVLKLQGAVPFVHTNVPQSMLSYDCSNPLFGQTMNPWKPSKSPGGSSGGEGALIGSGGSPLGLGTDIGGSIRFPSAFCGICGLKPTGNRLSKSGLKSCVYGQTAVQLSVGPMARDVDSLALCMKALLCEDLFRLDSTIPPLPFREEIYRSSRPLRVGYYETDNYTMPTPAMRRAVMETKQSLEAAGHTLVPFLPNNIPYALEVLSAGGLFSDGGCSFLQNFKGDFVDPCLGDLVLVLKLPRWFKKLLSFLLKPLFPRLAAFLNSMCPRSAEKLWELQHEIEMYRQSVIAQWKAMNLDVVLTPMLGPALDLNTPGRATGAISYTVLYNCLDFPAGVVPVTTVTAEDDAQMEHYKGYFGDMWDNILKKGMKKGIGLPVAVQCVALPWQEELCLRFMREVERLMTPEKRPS
Assay: FAAH Inhibition Study: prodrug alone or after FAAH inhibitor PF-3845 in mice
Conditions: FIG. 12, in vivo
Description: Two cohorts of three mice were injected once intraperitoneally (i.p.) with prodrug at 9.14 μmol/kg. One cohort was injected 1 h prior to prodrug administration with a 1 mg/kg dose of FAAH inhibitor PF-3845. Euthanasia was performed on each cohort 1 h after injection with the prodrug and the tissues and blood were harvested. Tissues were immediately frozen and blood was kept on ice for a minimum of 30 min and then spun down at 7500×g for 15 min. Serum ([…]) was collected and was stored with tissues at −80° C. until samples were processed. Samples were processed as described above.
All parent drugs and d6-sobetirome internal standard were analyzed using a QTRAP 4000 hybrid/triple quadrupole linear ion trap mass spectrometer (Applied biosystems) with electrospray ionization (ESI) in negative mode. The mass spectrometer was interfaced to a Shimadzu (Columbia, Md.) SIL-20AC XR auto-sampler followed by 2 LC-20AD XR LC pumps and analysis on an Applied Biosystems/SCIEX QTRAP 4000 instrument (Foster City, Calif.). […] Data were acquired using SCIEX Analyst 1.6.2 software (Framingham, Mass., USA) and analyzed using Multiquant 3.0.2
Statistical analyses were performed using the two-tailed Student t test comparing individual groups with the appropriate vehicle group or as noted. […] AUC values were calculated and data was plotted and analyzed using GraphPad Prism 7. […]

In vivo validation as substrate for the FAAH enzyme: substrate for the FAAH enzyme
SMILES: CNC(=O)COc1cc(C)c(Cc2cc(C#Cc3ccc([N+](=O)[O-])cc3)c(O)c(C(C)C)c2)c(C)c1 [NRMA-2, 2-(4-(4-hydroxy-3-isopropyl-5-((4-nitrophenyl)ethynyl)benzyl)-3,5-dimethylphenoxy)-N-methylacetamide]
